Assay results reported in US20250269018A1, “COMBINED CANCER THERAPY WITH AN EPITHELIAL CELL ADHESION MOLECULE (EPCAM) INHIBITOR AND A HEPATOCYTE GROWTH FACTOR RECEPTOR (HGFR) INHIBITOR” (ACADEMIA SINICA, priority 2021, published 2025).

T1: EpCAM and HGFR (Homo sapiens, UniProt P16422)
T1 construct: as detected by IP of endogenous proteins in HCT116 cells; endogenous in cells; host or cells: HCT116
T1 sequence (P16422 24-314): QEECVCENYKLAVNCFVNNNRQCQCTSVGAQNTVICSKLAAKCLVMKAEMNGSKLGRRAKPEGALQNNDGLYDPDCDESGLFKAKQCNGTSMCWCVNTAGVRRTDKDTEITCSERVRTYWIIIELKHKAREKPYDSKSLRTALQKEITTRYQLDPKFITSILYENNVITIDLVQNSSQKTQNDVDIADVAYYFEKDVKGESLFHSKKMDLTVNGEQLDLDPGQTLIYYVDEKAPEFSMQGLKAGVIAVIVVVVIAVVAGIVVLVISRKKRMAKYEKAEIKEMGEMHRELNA

B1: EpAb2-6: anti-EpCAM neutralizing monoclonal antibody targeting EpEX; VH SEQ ID NO: 15, VL SEQ ID NO: 16 (antibody, listed as Homo sapiens, V domains shown)
VH: VKLQESGPELKKPGETVKISCKASGYTFTDYSMHWVKQAPGKGLKWMGWINTETGEPTYADDFKGRFAFSLETSASTAYLQINNLKNEDTATYFCARTAVYWGQGTTVTVSS
VL: DIQMTQSPSSLSASLGERVSLTCRASQEISVSLSWLQQEPDGTIKRLIYATSTLDSGVPKRFSGSRSGSDYSLTISSLESEDFVDYYCLQYASYPWTFGGGTKLEIKRADAAPTVS

Tests used:
HCT116 cells = experiment: Cell growth by WST-1 assay, HCT116; format: cell-based, human; settings: 50 nM EpEX and SU 10 μM, FIG. 2D
Method: (§1) FIGS. 2A to 2K. EpEX promotes tumor progression via HGFR signaling. (FIG. 2A) WT or EpCAM knockout (KO) HCT116 and HT29 cells treated with HGF (0.5 nM) for 15 min. The phosphorylation of HGFR, AKT, and ERK was examined by Western blotting. (FIG. 2B) WT or KO HCT116 and HT29 cells were treated with HGF (0.5 nM) with 2% FBS for the indicated times. Cell growth was examined by the WST-1 assay. (FIG. 2C) Starved HCT116 cells were treated with HGFR inhibitor SU11274 (SU, 10 μM) for 1 h then treated with 50 nM of EpEX-His for 15 min. The levels of phosphorylated HGFR, EGFR, AKT, and ERK were examined by Western blotting. HCT116 and HT29 cells were treated with 50 nM EpEX and SU (10 μM). (FIG. 2D) Cell growth was examined by WST-1 assay after treatment for indicated time. (FIG. 2E) HCT116 cells were treated with shLuc or HGFR shRNA then treated with 50 nM of EpEX-His for 15 min. The levels of phosphorylated HGFR, EGFR, ERK, and AKT were examined in HGFR knockdown HCT116 cells by Western blotting. (FIG. 2F) The levels of phosphorylated ADAM17 and presenilin 2 were examined by Western blotting. […]
(§2) Cell viability was assayed by measuring mitochondrial dehydrogenase activity with the WST-1 (4-[3-(4-lodophenyl)-2-(4-nitrophenyl)-2H-5-tetrazolio]-1, 3-benzene disulfonate) assay. […] Following the incubation, absorbance of each well was detected at 450 nm using a spectrophotometric microplate reader.

HT29 cells = experiment: Cell growth by WST-1 assay, HT29; format: cell-based, human; settings: 50 nM EpEX and SU 10 μM, FIG. 2D
Method: as §1, §2

EpCAM and HGFR = target: T1, EpCAM and HGFR; experiment: Immunoprecipitation of endogenous EpCAM and HGFR in HCT116 cells; format: cell-based; settings: 6 h treatment, IP of endogenous proteins, FIG. 6E
Method: FIGS. 6A to 6J. EpAb2-6 inhibits EpCAM and HGFR signaling and promotes active β-catenin and Snail protein degradation via activating GSK3β. (FIG. 6A) HCT116 cells were treated with 10 μg/ml control IgG (normal mouse IgG, NMIgG) or mouse EpAb2-6 (EpAb2-6) for 16 h, followed by treatment with EpEX-His (50 nM) for 15 min. Levels of phosphorylated HGFR, AKT, FAK, GSK3β, ERK, ADAM17, and presenilin 2 were examined by Western blotting. (FIG. 6B) HCT116 cells were treated with 10 μg/ml control IgG or mouse EpAb2-6 for 16 h, followed by treatment without or with HGF (0.5 nM) for 15 min. Levels of phosphorylated HGFR, AKT, and ERK were examined by Western blotting. HCT116 cells were treated with mouse EpAb2-6 (10 μg/ml) and HGF (0.5 nM). […] (FIG. 6D) Cell invasion was assessed by a Transwell assay with matrigel after 24 h. […] (FIG. 6F) EpEX-His (2 μg/ml) co-treated with 1 μg IgG or EpAb2-6 was added to HGFR-Fc-coated (1 μg/ml) ELISA plates and detected by TMB colorimetric peroxidase assay. (FIG. 6G) EMT associated protein levels were detected by Western blotting in HCT116 cells treated with NMIgG or EpAb2-6 for 24 h. (FIG. 6H) Protein expression was analyzed by Western blotting in HCT116 cells after treatment with EpAb2-6 and 2 μM GSK3β inhibitor (BIO) for 24 h. Quantification of the normalized protein expression in the bottom panel. […]

HCT116-Luc cells = experiment: Orthotopic animal model, HCT116-Luc; settings: EpAb2-6 15 mg/kg, crizotinib 20 mg/kg, FIG. 9D, 9E
Method: (FIG. 9C) Timeline of the experiment to evaluate EpAb2-6 and/or crizotinib in the in orthotopic animal models. (FIG. 9D) NOD/SCID mice received orthotopic implantation of HCT116-Luc cells and then were treated with control IgG (normal mouse IgG, NMIgG), crizotinib, EpAb2-6, or crizotinib combined with EpAb2-6 starting at 3 days after tumor inoculation (n=5). Tumor growth was monitored by examining bioluminescence with the IVIS 200 Imaging System. (FIG. 9E) HCT116-Luc tumor cells monitored by bioluminescence quantification. […] (FIG. 9H) NOD/SCID mice were orthotopically implanted with HT29-Luc cells and then treated with control IgG, crizotinib, EpAb2-6, or crizotinib combined with EpAb2-6 starting at 3 days after tumor inoculation (n=5). Tumor growth was monitored by examining bioluminescence with an IVIS 200 Imaging System. (FIG. 9I) HT29-Luc tumor cells monitored by bioluminescence quantification.
Orthotopic tumor models were created as previously reported (Chen et al., 2020). Briefly, NSCID mice were used for orthotopic implantation of HCT116 cells previously infected with Lenti-luc virus (lentivirus containing luciferase gene). […] Tumor development was monitored by bioluminescence imaging. […] Tumor progression was monitored by quantification of bioluminescence. Mouse survival was also monitored.

Molecule | EpEX-induced increases in cell viability and proliferation (HCT116 cells) | EpEX-induced increases in cell viability and proliferation (HT29 cells) | association between EpCAM and HGFR (EpCAM and HGFR) | bioluminescence intensities (HCT116-Luc cells)
Cc1[nH]c(C=C2C(=O)Nc3ccc(S(=O)(=O)N(C)c4cccc(Cl)c4)cc32)c(C)c1C(=O)N1CCN(C)CC1 (stereo in doubt) [SU11274, (3Z)-N-(3-Chlorophenyl)-3-({3,5-dimethyl-4-[(4-methylpiperazin-1-yl)carbonyl]-1H-pyrrol-2-yl}methylene)-N-methyl-2-oxo-2,3-dihydro-1H-indole-5-sulfonamide] | abolished the EpEX-induced increases in cell viability and proliferation | abolished the EpEX-induced increases in cell viability and proliferation |  | 
B1 |  |  | decreased the association between EpCAM and HGFR | significantly decreased compared to the control IgG or crizotinib alone groups
